Reference: ChEMBL document CHEMBL5154744, “Stereo-Defined Acyclic Nucleoside Phosphonates are Selective and Potent Inhibitors of Parasite 6-Oxopurine Phosphoribosyltransferases” (J Med Chem, 2022)
pKi: −log10 of the molar value.

What was measured:
NHDF = test: Cytotoxicity against human NHDF cells assessed as cell viability at 10 uM; assay type: toxicity, cell-based
[1] = biological target: T1, Hypoxanthine-guanine phosphoribosyltransferase (Homo sapiens, UniProt P00492); test: Inhibition of human HGPRT using PRib-PP as substrate by spectrophotometric assay
T1 sequence (P00492 whole entry): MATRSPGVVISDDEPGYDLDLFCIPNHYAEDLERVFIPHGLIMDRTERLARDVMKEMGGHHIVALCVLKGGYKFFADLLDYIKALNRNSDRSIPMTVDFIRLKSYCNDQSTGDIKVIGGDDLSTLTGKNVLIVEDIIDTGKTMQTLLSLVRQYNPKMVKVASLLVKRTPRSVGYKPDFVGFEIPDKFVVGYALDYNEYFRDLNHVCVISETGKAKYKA

[2] = Inhibition of Plasmodium falciparum HGXPRT using PRib-PP as substrate by spectrophotometric assay
[3] = Inhibition of His-tagged Trypanosoma brucei HGPRT1 expressed in Escherichia coli BL21 (DE3) cells using PRib-PP as substrate by spectrophotometric assay
[4] = Inhibition of His-tagged Trypanosoma brucei HGXPRT expressed in Escherichia coli BL21 (DE3) cells using PRib-PP as substrate by spectrophotometric assay
[5] = Inhibition of Plasmodium vivax HGPRT using PRib-PP as substrate by spectrophotometric assay
HeLa = test: Cytotoxicity against human HeLa cells assessed as cell viability at 10 uM; assay type: toxicity, cell-based

Structure (SMILES) | Activity (NHDF) | pKi [1] | pKi [2] | pKi [3] | pKi [4] | pKi [5] | Activity (HeLa)
Nc1nc2c(ncn2C[C@H](COCP(=O)([O-])[O-])OCC(O)CO)c(=O)[nH]1.[Na+].[Na+] (stereo not given in full) | Non-Toxic | 5.40 | 6.00 | 6.30 | 5.70 | 5.30 | Non-Toxic
Nc1nc2c(ncn2C[C@@H](COCP(=O)([O-])[O-])OC[C@H](O)P(=O)([O-])[O-])c(=O)[nH]1.[Na+].[Na+].[Na+].[Na+] | Non-Toxic | 7.00 | 7.30 | 8.70 | 7.52 | 7.70 | Non-Toxic
O=c1[nH]cnc2c1ncn2C[C@@H](COCP(=O)([O-])[O-])OCC(O)CO.[Na+].[Na+] (stereo not given in full) | Non-Toxic | – | 5.62 | 6.00 | 4.85 | 4.89 | Non-Toxic
O=C(CCP(=O)(O)O)N1CC(OCCP(=O)(O)O)[C@H](n2cnc3c(=O)[nH]cnc32)C1 (stereo not given in full) | – | 7.70 | 7.85 | – | – | 7.10 | –
O=c1[nH]cnc2c1ncn2C[C@@H](COCP(=O)([O-])[O-])OCC(O)P(=O)([O-])[O-].[Na+].[Na+].[Na+].[Na+] (stereo not given in full) | Non-Toxic | 5.40 | 6.40 | 7.52 | 7.52 | 6.70 | Non-Toxic
Nc1nc2c(ncn2C[C@H](COCP(=O)([O-])[O-])OCCCP(=O)([O-])[O-])c(=O)[nH]1.[Na+].[Na+].[Na+].[Na+] | Non-Toxic | 6.40 | 6.10 | 7.40 | 7.22 | 6.15 | Non-Toxic
Nc1nc2c(ncn2C[C@@H](COCP(=O)([O-])[O-])OCCCP(=O)([O-])[O-])c(=O)[nH]1.[Na+].[Na+].[Na+].[Na+] | Non-Toxic | 6.30 | 6.70 | 8.00 | 6.60 | 6.40 | Non-Toxic
O=c1[nH]cnc2c1ncn2C[C@@H](COCP(=O)([O-])[O-])OCCCP(=O)([O-])[O-].[Na+].[Na+].[Na+].[Na+] | Non-Toxic | 4.66 | 5.22 | 6.40 | 6.35 | – | Non-Toxic
O=C(CCP(=O)(O)O)N1CC(OC[C@@H](O)P(=O)(O)O)[C@H](n2cnc3c(=O)[nH]cnc32)C1 (stereo not given in full) | – | – | 8.70 | – | – | 8.22 | –
Nc1nc2c(ncn2C[C@@H](COCP(=O)([O-])[O-])OC[C@@H](O)P(=O)([O-])[O-])c(=O)[nH]1.[Na+].[Na+].[Na+].[Na+] | Non-Toxic | 7.15 | 7.52 | 8.70 | 7.70 | 7.70 | Non-Toxic
O=c1[nH]cnc2c1ncn2CCCC(O)C(O)P(=O)(O)O (stereo not given) | – | 5.30 | 5.52 | 5.15 | 5.22 | – | –
Nc1nc2c(ncn2CCOCC(O)P(=O)(O)O)c(=O)[nH]1 (stereo not given) | – | 6.70 | 6.52 | – | 6.22 | – | –
Nc1nc2c(ncn2C[C@H](COCP(=O)([O-])[O-])OCC(O)P(=O)([O-])[O-])c(=O)[nH]1.[Na+].[Na+].[Na+].[Na+] (stereo not given in full) | Non-Toxic | 6.40 | 7.00 | 7.40 | 7.40 | 6.52 | Non-Toxic
O=c1[nH]cnc2c1ncn2CCC/C=C/P(=O)(O)O | – | 5.22 | 4.89 | 6.00 | 4.92 | – | –
O=c1[nH]cnc2c1ncn2C[C@H](COCP(=O)([O-])[O-])OCCCP(=O)([O-])[O-].[Na+].[Na+].[Na+].[Na+] | Non-Toxic | 6.52 | – | 5.82 | 6.70 | – | Non-Toxic
O=c1[nH]cnc2c1ncn2CCOCC(O)P(=O)(O)O (stereo not given) | – | 5.70 | 6.15 | 6.22 | 7.00 | – | –
Nc1nc2c(ncn2CC(COCP(=O)(O)O)COCP(=O)(O)O)c(=O)[nH]1 | – | – | 7.15 | – | – | 6.22 | –
O=c1[nH]cnc2c1ncn2C[C@H](COCP(=O)([O-])[O-])OCC(O)CO.[Na+].[Na+] (stereo not given in full) | Non-Toxic | – | – | 5.62 | 5.05 | – | Non-Toxic
O=c1[nH]cnc2c1ncn2C[C@H](COCP(=O)([O-])[O-])OCC(O)P(=O)([O-])[O-].[Na+].[Na+].[Na+].[Na+] (stereo not given in full) | Non-Toxic | 5.70 | – | 6.52 | 7.00 | 6.15 | Non-Toxic
Nc1nc2c(ncn2C[C@@H](COCP(=O)([O-])[O-])OCC(O)CO)c(=O)[nH]1.[Na+].[Na+] (stereo not given in full) | Non-Toxic | 5.05 | 6.00 | 6.52 | 5.70 | 5.70 | Non-Toxic
Nc1nc2c(ncn2C[C@@H](COCCOP(=O)(O)O)COCP(=O)(O)O)c(=O)[nH]1 | – | 8.22 | 7.15 | – | – | 6.70 | –
Nc1nc2c(ncn2C[C@@H](COCP(=O)([O-])[O-])OCC(O)P(=O)([O-])[O-])c(=O)[nH]1.[Na+].[Na+].[Na+].[Na+] (stereo not given in full) | Non-Toxic | 7.00 | 7.52 | 8.30 | 7.70 | 8.00 | Non-Toxic
